Assay results taken from BindingDB's records for doi:10.1016/s0960-894x(02)00796-5 (Janssen-Cilag, 2002).

Experiments:
[1] = Binding affinity against […] adrenergic receptor
[2] = as above; remark: listed apart in the source

| IC50 [1] [µM] | Structure (SMILES) | IC50 [2] [µM] |
| --- | --- | --- |
| 0.871 | CN(C)CC1CC2c3ccccc3Cc3ccc(Cl)cc3N2O1 (centres undefined) | – |
| – | CN(C)CC1CC2c3ccccc3Cc3ccncc3N2O1 (centres undefined) | < 1 |
| – | CN(C)CC1CC2c3cccnc3Cc3ccccc3N2O1 (centres undefined) | < 1 |
| 1.86 | CN(C)C[C@@H]1C[C@@H]2c3ccccc3Cc3ccccc3N2O1 [Dimethyl-[(2S,3aR)-1-(2,3,3a,8-tetrahydro-1-oxa-12b-aza-dibenzo[e,h]azulen-2-yl)methyl]-amine] | – |
